System: HEK 293 cells
Experiment: Penetration of FAM-labeled cell permeable peptide into HEK 293 cells in alginate gel drops, CLSM imaging
Type: cell-based, Human
Conditions: 15 μg/mL, 5 mins incubation, 1% w/v alginate, 63× oil immersion lens
Procedure: High resolution observation of reactions between peptides and cells. Not only should proteins and peptides diffuse through the gel, they should also be able to react with cells, for drug screening applications. […] Sodium alginate solution (1% w/v) was mixed with a HEK 293 cell suspension and used as a source solution for single dispensing on 750 μm diameter nDAP anvils using a single robotically controlled rod. The alginate was cured with 1% calcium chloride for 5 min. […] The holder was filled with medium and imaged using a confocal microscope (CLSM). After the cells were imaged, a 15 μg/mL solution of (Arg)9 was introduced using a syringe, displacing the medium. […] The holder enables observation of single cells at high resolution while permitting the exchange of solutions without interfering with the gel anchor on the nDAPs.

(Arg)9
penetration into HEK 293 cells through gel: Two cells with cell permeable protein were clearly seen
